{"source": "paper PMC8435237", "about": "“Overexpressing the N‐terminus of CATALASE2 enhances plant jasmonic acid biosynthesis and resistance to necrotrophic pathogen Botrytis cinerea B05.10” (Molecular Plant Pathology, 2021)", "key": {"[1]": {"biological_target": "T1, ACX2 (Arabidopsis thaliana, UniProt O65201)", "T1 construct": "pET28a (plasmid as in Yuan et al. 2017), purified from E. coli", "T1 sequence (O65201 50-692)": "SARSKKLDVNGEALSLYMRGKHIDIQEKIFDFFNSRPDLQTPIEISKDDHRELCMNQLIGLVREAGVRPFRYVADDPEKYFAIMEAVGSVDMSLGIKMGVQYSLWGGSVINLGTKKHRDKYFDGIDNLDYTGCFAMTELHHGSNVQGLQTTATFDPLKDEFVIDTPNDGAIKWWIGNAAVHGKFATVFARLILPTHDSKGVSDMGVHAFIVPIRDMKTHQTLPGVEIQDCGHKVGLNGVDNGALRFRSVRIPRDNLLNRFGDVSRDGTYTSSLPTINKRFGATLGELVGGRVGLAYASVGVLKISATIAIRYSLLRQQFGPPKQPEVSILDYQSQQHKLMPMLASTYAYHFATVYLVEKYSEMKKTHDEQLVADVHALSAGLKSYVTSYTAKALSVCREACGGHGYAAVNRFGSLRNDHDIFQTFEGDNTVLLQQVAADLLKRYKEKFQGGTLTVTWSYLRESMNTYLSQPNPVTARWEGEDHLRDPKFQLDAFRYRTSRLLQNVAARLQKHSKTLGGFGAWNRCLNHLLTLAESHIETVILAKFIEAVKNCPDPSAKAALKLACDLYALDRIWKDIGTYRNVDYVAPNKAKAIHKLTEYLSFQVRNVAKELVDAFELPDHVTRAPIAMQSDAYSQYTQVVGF", "assay": "MALDI-TOF/TOF MS of substrate and product", "assay_type": "biochemical", "settings": "no CAT2; 50 mM KPO4 pH 7.6, 50 µM FAD, 100 µg/ml BSA, 25 °C, 30 min; product Δ2-OPC4-CoA"}, "[2]": {"biological_target": "T2, ACX3 (Arabidopsis thaliana, UniProt P0CZ23)", "T2 construct": "pET28a (plasmid as in Yuan et al. 2017), purified from E. coli", "T2 sequence (P0CZ23 35-675)": "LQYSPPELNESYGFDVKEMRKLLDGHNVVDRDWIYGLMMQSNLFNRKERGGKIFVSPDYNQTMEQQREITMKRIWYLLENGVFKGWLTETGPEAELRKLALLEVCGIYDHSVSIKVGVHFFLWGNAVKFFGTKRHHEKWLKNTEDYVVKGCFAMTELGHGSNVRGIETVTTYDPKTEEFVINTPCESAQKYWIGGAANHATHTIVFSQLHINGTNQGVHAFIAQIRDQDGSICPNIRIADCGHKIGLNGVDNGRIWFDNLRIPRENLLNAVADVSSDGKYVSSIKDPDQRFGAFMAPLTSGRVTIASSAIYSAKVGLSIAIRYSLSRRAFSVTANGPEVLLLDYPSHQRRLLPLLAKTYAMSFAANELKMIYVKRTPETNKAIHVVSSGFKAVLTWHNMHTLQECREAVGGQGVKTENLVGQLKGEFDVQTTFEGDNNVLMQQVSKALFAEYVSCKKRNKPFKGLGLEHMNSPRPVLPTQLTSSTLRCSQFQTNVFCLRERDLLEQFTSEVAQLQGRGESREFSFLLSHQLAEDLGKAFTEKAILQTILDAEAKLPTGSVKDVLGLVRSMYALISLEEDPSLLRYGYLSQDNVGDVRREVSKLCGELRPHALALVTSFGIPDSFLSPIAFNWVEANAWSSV", "assay": "MALDI-TOF/TOF MS of substrate and product", "assay_type": "biochemical", "settings": "no CAT2; 50 mM KPO4 pH 7.6, 50 µM FAD, 100 µg/ml BSA, 25 °C, 30 min; product Δ2-OPC4-CoA"}}, "data": [{"smiles": "CC/C=C\\C[C@@H]1C(=O)CC[C@@H]1CCCC(=O)SCCNC(=O)CCNC(=O)[C@H](O)C(C)(C)COP(=O)(O)OP(=O)(O)OC[C@H]1O[C@@H](n2cnc3c(N)ncnc32)[C@H](O)[C@@H]1OP(=O)(O)O", "note": "[OPC4‐CoA]", "values": [{"measurement": "MALDI-TOF/TOF MS of substrate and product", "setting": "[1]", "result": "The enzymatic activities of ACX2 and ACX3 were assessed with OPC4‐CoA as the substrate"}, {"measurement": "MALDI-TOF/TOF MS of substrate and product", "setting": "[2]", "result": "The enzymatic activities of ACX2 and ACX3 were assessed with OPC4‐CoA as the substrate"}]}]}
